Experiments:
[1] = test system: TAA-induced model hepatic fibrosis in mice; assay: Treatment of TAA-induced model hepatic fibrosis in mice by oral (intragastric) administration; hydroxyproline test and alanine aminotransferase test; type: in vivo, ICR mice; conditions: hepatic tissue, 20mg/kg intragastrically in corn oil, twice a week, 4 weeks, TAA 200mg/kg, mean value ± standard deviation; for hydroxyproline: TAA model group 356±43; for alanine aminotransferase: TAA model group 372±24
Source text: (§1) The following example is to be regarded as a case to illustrate specific details of this invention. It should not be viewed as to limit the application scope of this invention. Application of Indole-3-carbinol, Diindolylmethane and Derivatives thereof Disclosed in This Invention in the Treatment of Modeled Hepatic Fibrosis: • 1. Injecting the phosphate buffer solution of thioacetamide (TTA) into the abdominal cavity of ICR mice so that TTA models of hepatic fibrosis can be established. • 2. Dissolving indole-3-carbinol, diindolylmethane and derivative thereof in corn oil and treating hepatic fibrosis through intragastric administration at the same time of the establishment of TTA models of hepatic fibrosis. • 3. Administering TAA, indole-3-carbinol, diindolylmethane and derivatives thereof twice a week for four weeks in succession; killing the mice and taking out the liver for hydroxyproline test and alanine aminotransferase (ALT) test. Application of Water Injection of Indole-3-carbinol, Diindolylmethane and Derivatives thereof Disclosed in This Invention in the Treatment of Modeled Hepatic Fibrosis: • 1. Injecting the phosphate buffer solution of thioacetamide (TTA) into the abdominal cavity of ICR mice so that TTA models of hepatic fibrosis can be established. • 2. Dissolving indole-3-carbinol, diindolylmethane and derivative thereof in water and treating hepatic fibrosis through intraperitoneal administration at the same time of the establishment of TTA models of hepatic fibrosis. • 3. Administering TAA, indole-3-carbinol, diindolylmethane and derivatives thereof twice a week for four weeks in succession; killing the mice and taking out the liver for hydroxyproline test and alanine aminotransferase (ALT) test. Dissolving I3C, DIM and methoxyl-DIM in corn oil so that 2.0mg/ml stock solution can be obtained for later use; establishing TAA models of hepatic fibrosis in mice with the method commonly adopted in the related literature, namely, picking 40 mice weighing 16-18g and randomly dividing them into four groups: TAA model group, I3C treatment group, DIM treatment group and 5-methoxyl-DIM treatment group; injecting TAA phosphate buffer solution (200mg/kg) into the abdominal cavity of the mice, twice a week; starting the treatment at the same time of the model establishment: administering the correlated drugs intragastrically at the rate of 20mg/kg to the mice in I3C treatment group, DIM treatment group and 5-methoxyl-DIM treatment group, twice a week; in contrast, the mice in the TAA model group are given only corn oil at the same dosage and frequency. Killing all mice of the four groups 4 weeks later and taking out the pathologically changed hepatic tissue for hydroxyproline test and alanine aminotransferase test. • (1) Hydroxyproline test Preparing the tissue homogenate of the pathologically changed liver and extracting the supernatant thereof; testing the concentration of hydroxyproline by means of alkaline hydrolysis. • (2) Results of alanine aminotransferase test Testing the serum of mice so that the concentration of alanine aminotransferase can be determined. When hepatic fibrosis is in process, what accumulate in liver are mainly collagen fibers. Since hydroxyproline is specific to collagen fibers, its concentration to some extent reflects the degree of hepatic fibrosis. As is shown in table 1, the oral administration of I3C, DIM and derivatives thereof can effectively relieve hepatic fibrosis as the concentration of hydroxyproline in the treatment groups is significant lower than that of the TAA model group. […]

[2] = test system: TAA-induced model hepatic fibrosis in mice; assay: Treatment of TAA-induced model hepatic fibrosis in mice by intraperitoneal administration of water injection; hydroxyproline test and alanine aminotransferase test; type: in vivo, ICR mice; conditions: 20mg/kg intraperitoneally, water injection with cyclodextrin in physiological saline, twice a week, 4 weeks, mean value ± standard deviation; for alanine aminotransferase: TAA model group 392±31; for hydroxyproline: hepatic tissue, TAA model group 363±32
Source text: as §1, with “determined.” for “determined. When hepatic fibrosis is in process, what accumulate in liver are mainly collagen fibers. Since hydroxyproline is specific to collagen fibers, its concentration to some extent reflects the degree of hepatic fibrosis. As is shown in table 1, the oral administration of I3C, DIM and derivatives thereof can effectively relieve hepatic fibrosis as the concentration of hydroxyproline in the treatment groups is significant lower than that of the TAA model group.”

Row | Structure (SMILES) | hydroxyproline [1] | alanine aminotransferase [1] | alanine aminotransferase [2] | hydroxyproline [2]
1 | COc1ccc2[nH]cc(Cc3c[nH]c4ccc(OC)cc34)c2c1 [5-methoxyl-DIM] | 194±17 µg/g liver | 236±12 U/mgprot | 226±19 U/mgprot | 203±14 µg/g liver
2 | c1ccc2c(Cc3c[nH]c4ccccc34)c[nH]c2c1 [DIM, 3,3'-Diindolylmethane] | 176±21 µg/g liver | 204±37 U/mgprot | 187±29 U/mgprot | 195±24 µg/g liver
3 | OCc1c[nH]c2ccccc12 [I3 C, indole-3-carbinol] | 237±11 µg/g liver | 245±32 U/mgprot | 239±21 U/mgprot | 253±21 µg/g liver

Reference: patent EP2606887A1, “DIINDOLYLMETHANE, PRECURSOR AND DERIVATIVES THEREOF IN PREPARATION OF MEDICAMENTS FOR TREATING LIVER DISEASES” (Nanjing University, priority 2010, dated 2012)
